Source: US20250059164A1, “IRAK DEGRADERS AND USES THEREOF” (Kymera Therapeutics, Inc., priority 2023, published 2025)

Tests used:
IRAK4 = molecular target: T1, IRAK4 (Homo sapiens, UniProt Q9NWZ3); test: IRAK4 MSD degradation in OCI-LY10; assay type: cell-based; details: OCI-LY10 cells, 24 hrs, Meso Scale Discovery
T1 construct: endogenous in cells; host or cells: OCI-LY10
T1 sequence (Q9NWZ3 1-460): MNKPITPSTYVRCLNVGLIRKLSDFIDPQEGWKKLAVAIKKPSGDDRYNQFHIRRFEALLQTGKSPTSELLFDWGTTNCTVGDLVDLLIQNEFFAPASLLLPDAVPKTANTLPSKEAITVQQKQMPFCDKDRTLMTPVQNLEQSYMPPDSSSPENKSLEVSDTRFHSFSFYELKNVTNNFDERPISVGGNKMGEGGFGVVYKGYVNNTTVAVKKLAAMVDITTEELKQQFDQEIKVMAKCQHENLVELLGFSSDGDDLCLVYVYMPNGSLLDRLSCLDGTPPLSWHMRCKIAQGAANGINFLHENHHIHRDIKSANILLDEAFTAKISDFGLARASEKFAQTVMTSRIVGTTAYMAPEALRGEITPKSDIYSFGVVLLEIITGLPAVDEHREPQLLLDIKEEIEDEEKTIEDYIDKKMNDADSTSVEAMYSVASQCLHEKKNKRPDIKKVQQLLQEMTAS
How it was run: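 OCI-LY10 cells treated 4 to 24 hours at 37° C. with 8-dose 1:3 series, top 1 to 10 μM. IRAK4 in lysates quantified by MSD sandwich immunoassay (mouse capture, rabbit detection, SULFO-TAG anti-rabbit). DC50 from three-parameter logistic fit.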

[1] = Rodent pharmacokinetics (rat PK); assay type: in vivo; details: po, dosed intravenously or orally by gavage, plasma, read-out: F % (bioavailability)
How it was run: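 Rats were dosed IV or by oral gavage, with jugular blood taken predose and at 5 min (IV only), 15, 30 min and 1, 2, 4, 8, 24 h. Plasma was separated by centrifugation at 4 °C. Oral bioavailability (F %) is coded A (≥5%) or B (≤5%).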

Cn1c(=O)n(C2CCC(=O)NC2=O)c2ccc(F)c(N3CC4(CCN(C[C@H]5CC[C@H](n6cc7cc(NC(=O)c8cncc(C#N)c8)c(C(C)(C)O)cc7n6)CC5)CC4(F)F)C3)c21 (stereo partly shown) [I-388]
DC50 (IRAK4): < 10 nM
bioavailability [1]: ≤ 5%

COc1cc2nc([C@H]3CC[C@H](CN(C)[C@@H]4CCN(c5cccc6c5n(C)c(=O)n6C5CCC(=O)NC5=O)C[C@@H]4F)CC3)cn2cc1NC(=O)c1cncc(C(F)(F)F)n1 (single isomer, unassigned) [I-319]
DC50 (IRAK4): < 10 nM
bioavailability [1]: ≤ 5%

CN(C[C@H]1CC[C@H](c2nc3cc(C(C)(C)O)c(NC(=O)c4cncc(C(F)(F)F)n4)cc3o2)CC1)[C@@H]1CCN(c2cccc3c2n(C)c(=O)n3C2CCC(=O)NC2=O)C[C@H]1F (single isomer, unassigned) [I-297]
DC50 (IRAK4): 10 to 100 nM
bioavailability [1]: ≥ 5%

Cn1c(=O)n(C2CCC(=O)NC2=O)c2cccc(N3CCC4(CCN(C[C@H]5CC[C@H](c6nc7cc(C(C)(C)O)c(NC(=O)c8cncc(C#N)c8)cc7o6)CC5)CC4(F)F)CC3)c21 (stereo partly shown) [I-406]
DC50 (IRAK4): > 200 nM
bioavailability [1]: ≤ 5%

Cc1cncc(C(=O)Nc2cc3cn([C@H]4CC[C@H](CN5CCC6(CN(c7cccc8c7n(C)c(=O)n8C7CCC(=O)NC7=O)C6)C(F)(F)C5)CC4)nc3cc2C(C)(C)O)c1 (stereo partly shown) [I-342]
DC50 (IRAK4): < 10 nM
bioavailability [1]: ≤ 5%

COc1cc2nn([C@H]3CC[C@H](CN4CCC5(CCN(c6cccc7c6n(C)c(=O)n7C6CCC(=O)NC6=O)CC5)C(F)(F)C4)CC3)cc2cc1C(=O)Nc1cccc(C(F)(F)F)n1 (stereo partly shown) [I-396]
DC50 (IRAK4): > 200 nM
bioavailability [1]: ≤ 5%

Cn1c(=O)n(C2CCC(=O)NC2=O)c2cccc([C@@H]3CCN(C[C@H]4CC[C@H](c5cn6cc(NC(=O)c7cccc(C(F)(F)F)c7)ccc6n5)CC4)C[C@H]3F)c21 (stereo partly shown) [I-274]
DC50 (IRAK4): < 10 nM
bioavailability [1]: ≤ 5%

COc1ccc2c(c1N1CC3(CCN(C[C@H]4CC[C@H](c5nc6cc(C(C)(C)O)c(NC(=O)c7cccc(C(F)(F)F)n7)cc6s5)CC4)CC3(F)F)C1)n(C)c(=O)n2C1CCC(=O)NC1=O (stereo partly shown) [I-414]
DC50 (IRAK4): > 200 nM
bioavailability [1]: ≤ 5%

Cn1c(=O)n(C2CCC(=O)NC2=O)c2cccc([C@@H]3CCN(C[C@H]4CC[C@H](c5cn6cc(NC(=O)c7cncc(C(F)(F)F)n7)ccc6n5)CC4)C[C@H]3F)c21 (stereo partly shown) [I-193]
DC50 (IRAK4): < 10 nM
bioavailability [1]: ≤ 5%

Cn1c(=O)n(C2CCC(=O)NC2=O)c2cccc([C@@H]3CCN(C[C@H]4CC[C@H](n5cc6cc(NC(=O)c7cc(C(F)(F)F)ccn7)ccc6n5)CC4)C[C@H]3F)c21 (stereo partly shown) [I-134]
DC50 (IRAK4): > 200 nM
bioavailability [1]: ≥ 5%

COc1ccc2c(c1[C@H]1CCN(C[C@H]3CC[C@H](n4cc5cc(NC(=O)c6cncc(C(F)(F)F)n6)ccc5n4)CC3)C[C@@H]1F)n(C)c(=O)n2C1CCC(=O)NC1=O (stereo partly shown) [I-352]
DC50 (IRAK4): < 10 nM
bioavailability [1]: ≤ 5%

Cn1c(=O)n(C2CCC(=O)NC2=O)c2cccc([C@@H]3CCN(C[C@H]4CC[C@H](c5cc6cc(NC(=O)c7cncc(C(F)(F)F)n7)ccn6n5)CC4)C[C@H]3F)c21 (stereo partly shown) [I-194]
DC50 (IRAK4): < 10 nM
bioavailability [1]: ≥ 5%

Cn1c(=O)n(C2CCC(=O)NC2=O)c2cccc(N3CCC(F)(CN4CCC(c5nc6cc(C(C)(C)O)c(NC(=O)c7cccc(C(F)(F)F)n7)cc6s5)CC4)CC3)c21 (stereo not shown) [I-191]
DC50 (IRAK4): 10 to 100 nM
bioavailability [1]: ≤ 5%

O=C1CCC(n2c(=O)oc3c([C@H]4CCN(C[C@H]5CC[C@H](n6cc7cc(NC(=O)c8cncc(C(F)(F)F)n8)ccc7n6)CC5)C[C@@H]4F)cccc32)C(=O)N1 (single isomer, unassigned) [I-360]
DC50 (IRAK4): > 200 nM
bioavailability [1]: ≤ 5%

COc1cc2nn([C@H]3CC[C@H](CN4CCC5(CN(c6ccc(C7CCC(=O)NC7=O)c(Cl)c6)C5)C(F)(F)C4)CC3)cc2cc1NC(=O)c1cncc(C#N)c1 (stereo partly shown) [I-128]
DC50 (IRAK4): 10 to 100 nM
bioavailability [1]: ≤ 5%

Cn1nc(N2CCC(=O)NC2=O)c2cccc(N3CCC4(CCN(C[C@H]5CC[C@H](n6cc7cc(NC(=O)c8cncc(C#N)c8)c(C(C)(C)O)cc7n6)CC5)CC4(F)F)CC3)c21 [I-404]
DC50 (IRAK4): 10 to 100 nM
bioavailability [1]: ≤ 5%

Cn1c(=O)n(C2CCC(=O)NC2=O)c2cccc([C@@H]3CCN(C[C@H]4CC[C@H](c5cn6cc(NC(=O)c7cncc(C(F)(F)F)n7)c(C(C)(C)O)cc6n5)CC4)C[C@H]3F)c21 (stereo partly shown) [I-343]
DC50 (IRAK4): < 10 nM
bioavailability [1]: ≤ 5%

COc1ccc2c(c1[C@@H]1CCN(C[C@H]3CC[C@H](n4cc5cc(NC(=O)c6cncc(C(F)(F)F)n6)ccc5n4)CC3)CC1(F)F)n(C)c(=O)n2C1CCC(=O)NC1=O (single isomer, unassigned) [I-391]
DC50 (IRAK4): < 10 nM
bioavailability [1]: ≥ 5%

Cn1c(=O)n(C2CCC(=O)NC2=O)c2cccc([C@@H]3CCN(C[C@H]4CC[C@H](n5cc6cc(NC(=O)c7cncc(C#N)c7)c(C(C)(C)O)cc6n5)CC4)C[C@H]3F)c21 (stereo partly shown) [I-188]
DC50 (IRAK4): < 10 nM
bioavailability [1]: ≤ 5%

Cn1c(=O)n(C2CCC(=O)NC2=O)c2cccc([C@@H]3CCN(C[C@H]4CC[C@H](n5cc6cc(NC(=O)c7nccc(C(F)(F)F)n7)ccc6n5)CC4)C[C@H]3F)c21 (stereo partly shown) [I-195]
DC50 (IRAK4): > 200 nM
bioavailability [1]: ≤ 5%

COc1cc2nn([C@H]3CC[C@H](CN4CC[C@@H](c5cccc6c5n(C)c(=O)n6C5CCC(=O)NC5=O)[C@H](F)C4)CC3)cc2cc1C(=O)Nc1cccc(C(F)(F)F)n1 (stereo partly shown) [I-200]
DC50 (IRAK4): < 10 nM
bioavailability [1]: ≤ 5%

Cn1c(=O)n(C2CCC(=O)NC2=O)c2cccc([C@@H]3CCN(C[C@H]4CC[C@H](n5cc6cc(NC(=O)c7cncc(C(C)(C)C)n7)ncc6n5)CC4)C[C@H]3F)c21 (stereo partly shown) [I-322]
DC50 (IRAK4): < 10 nM
bioavailability [1]: ≤ 5%

COc1cc2nn([C@H]3CC[C@H](CN4CCC5(CN(c6cccc7c6n(C)c(=O)n7C6CCC(=O)NC6=O)C5)C(F)(F)C4)CC3)cc2cc1NC(=O)c1cncc(C)c1 (stereo partly shown) [I-243]
DC50 (IRAK4): < 10 nM
bioavailability [1]: ≤ 5%

Cn1c(=O)n(C2CCC(=O)NC2=O)c2cccc(N3CC4(CCN(C[C@H]5CC[C@H](n6cc7cc(NC(=O)c8cncc(C#N)c8)c(C(C)(C)O)cc7n6)CC5)CC4(F)F)C3)c21 (stereo partly shown) [I-366]
DC50 (IRAK4): < 10 nM
bioavailability [1]: ≤ 5%

O=C1CCN(c2cc(C(=O)N3CCN(C[C@H]4CC[C@H](n5cc6cc(NC(=O)c7cncc(C(F)(F)F)n7)ccc6n5)CC4)CC3)ncc2Cl)C(=O)N1 [I-305]
DC50 (IRAK4): > 200 nM
bioavailability [1]: ≤ 5%

Cn1c(=O)n(C2CCC(=O)NC2=O)c2cccc(N3CCC4(CCN(C[C@H]5CC[C@H](n6cc7cc(NC(=O)c8cncc(C#N)c8)c(C(C)(C)O)cc7n6)CC5)CC4(F)F)CC3)c21 (mixture of isomers) [I-136, 5-Cyano-N-[2-[4-[[9-[1-(2,6-dioxo-3-piperidyl)-3-methyl-2-oxo-benzimidazol-4-yl]-5,5-difluoro-3,9-diazaspiro[5.5]undecan-3-yl]methyl]cyclohexyl]-6-(1-hydroxy-1-methyl-ethyl)indazol-5-yl]pyridine-3-carboxamide]
DC50 (IRAK4): < 10 nM
bioavailability [1]: ≤ 5%

Cn1c(=O)n(C2CCC(=O)NC2=O)c2cccc(N3CC4(CCN(C[C@H]5CC[C@H](c6nc7cc(C(C)(C)O)c(NC(=O)c8cncc(C#N)c8)cc7o6)CC5)CC4(F)F)C3)c21 (stereo partly shown) [I-410]
DC50 (IRAK4): > 200 nM
bioavailability [1]: ≥ 5%

CN(C[C@H]1CC[C@H](n2cc(NC(=O)c3cnn4cccnc34)c(C(F)F)n2)CC1)[C@@H]1CCN(c2cccc3c2n(C)c(=O)n3C2CCC(=O)NC2=O)C[C@H]1F (single isomer, unassigned) [I-279]
DC50 (IRAK4): < 10 nM
bioavailability [1]: ≥ 5%

CC(C)(O)c1cc2nn([C@H]3CC[C@H](CN4CCC5(CCN(c6cccc7c(N8CCC(=O)NC8=O)cncc67)CC5)C(F)(F)C4)CC3)cc2cc1NC(=O)c1cncc(C#N)c1 [I-400]
DC50 (IRAK4): < 10 nM
bioavailability [1]: ≤ 5%

COc1ccc2c(c1N1CC3(CCN(C[C@H]4CC[C@H](c5nc6cc(C(C)(C)O)c(NC(=O)c7cncc(C#N)c7)cc6s5)CC4)CC3(F)F)C1)n(C)c(=O)n2C1CCC(=O)NC1=O (stereo partly shown) [I-412]
DC50 (IRAK4): 100 to 200 nM
bioavailability [1]: ≤ 5%

CN(C[C@H]1CC[C@H](c2nc3cc(C(C)(C)O)c(NC(=O)c4cccc(C(F)(F)F)n4)cc3o2)CC1)[C@@H]1CCN(c2cccc3c2n(C)c(=O)n3C2CCC(=O)NC2=O)C[C@H]1F (stereo partly shown) [I-137]
DC50 (IRAK4): < 10 nM
bioavailability [1]: ≥ 5%

Cn1c(=O)n(C2CCC(=O)NC2=O)c2cccc([C@@H]3CCN(C[C@H]4CC[C@H](n5cc6cc(NC(=O)c7cncc(OC(F)F)n7)ccc6n5)CC4)C[C@H]3F)c21 (stereo partly shown) [I-339]
DC50 (IRAK4): < 10 nM
bioavailability [1]: ≤ 5%

Cn1c(=O)n(C2CCC(=O)NC2=O)c2cccc(N3CC4(CCN(C[C@H]5CC[C@H](n6cc7cc(NC(=O)c8cncc(C(F)(F)F)n8)c(C(C)(C)O)cc7n6)CC5)CC4(F)F)C3)c21 (stereo partly shown) [I-326]
DC50 (IRAK4): < 10 nM
bioavailability [1]: ≥ 5%

Cn1c(=O)n(C2CCC(=O)NC2=O)c2cccc(N3CC(COC[C@H]4CC[C@H](n5cc6cc(NC(=O)c7cccc(C(F)(F)F)c7)ncc6n5)CC4)C3)c21 (stereo partly shown) [I-269]
DC50 (IRAK4): > 200 nM
bioavailability [1]: ≤ 5%

Cn1c(=O)n(C2CCC(=O)NC2=O)c2cccc([C@@H]3CCN(C[C@H]4CC[C@H](n5cc(NC(=O)c6cnn7ccc(N8C[C@H]9C[C@@H]8CO9)nc67)c(C(F)F)n5)CC4)CC3(F)F)c21 (single isomer, unassigned) [I-331]
DC50 (IRAK4): < 10 nM
bioavailability [1]: ≤ 5%
